According to patent US20100009014A1, “Use of composition for manufacture of medicant and method for inhibiting formation of body fat” (Maxluck Biotechnology Corp., priority 2008, published 2010):

Test: Epididymal fat weight and body weight, lactoferrin vs trivalent chromium vs combination (Test Example 5)
Format: in vivo, C57BL/6JNarl mice
Conditions: fed 7 weeks; for Body weight / Epididymal fat weight: high-fat diet
Experimental: The C57BL/6JNarl mice (N=70) are fed with a mouse diet (high-fat Rodent TestDiet, PMI Nutrition International Inc., MO, U.S.A.; 67% of calories provided by fat). The C57BL/6JNarl mice are randomly divided into seven groups and there are ten mice in each group. In one experimental group, the mice are fed with the mouse diet mixed with lactoferrin (NZMP lactoferrin, New Zealand, low dose: 40 mg/kg BW/day, high dose: 80 mg/kg BW/day). In another experimental group, the mice are fed with the mouse diet mixed with trivalent chromium (chromium (III) chloride hexahydrate, low dose: 40 μg/kg BW/day Cr^3+, high dose: 80 μg/kg BW/day Cr^3+). In yet another experimental group, the mice are fed with the mouse diet mixed with a lactoferrin/trivalent chromium composition (low dose: lactoferrin of 40 mg/kg BW/day with Cr^3+ of 40 μg/kg BW/day, high dose: lactoferrin of 80 mg/kg BW/day with Cr^3+ of 80 μg/kg BW/day). In the control group, the mice are fed with the mouse diet containing no other additive. The C57BL/6JNarl mice aged 8 weeks are fed for 7 weeks and then sacrificed to measure the weight of Epididymal fat and body weight, as shown in Table 5.
Accordingly, it can be known that the lactoferrin/trivalent chromium composition provides more significant efficiency in comparison to single lactoferrin or trivalent chromium.

[1] = High dose (lactoferrin 80 mg/kg BW/day and/or Cr3+ 80 μg/kg BW/day)
[2] = Low dose (lactoferrin 40 mg/kg BW/day and/or Cr3+ 40 μg/kg BW/day)

O.O.O.O.O.O.[Cl][Cr]([Cl])[Cl] [Trivalent Chromium, chromium (III) chloride hexahydrate]
Body weight [1]: 27.7 ± 1.35 g
Epididymal fat weight [1]: 0.82 ± 0.2 g
Body weight [2]: 27.8 ± 1.33 g
Epididymal fat weight [2]: 0.78 ± 0.16 g
Epididymal fat weight and body weight vs control group (in words): cannot achieve significant efficiency
